These results are taken from US5608081A, “Hydroxymethylpolythiophene derivatives” (Industrial Technology Research Institute, priority 1995, dated 1997).

The assay is described as follows: Anti-edema activity, conventional toe edema method using carrageenan as pyrogen and indomethacin as control inhibitory agent. Format: in vivo. The note with it: inhibition rate above 30% considered also antiinflammatory. On the procedure:
The anti-edema activity was tested according to the conventional toe edema method using carrageenan as pyrogen and indomethacin as control inhibitory agent. See C. A. Winter, E. A. Risley and G. W. Nuss, Biol. Med., 111, 544 (1962); and A. P. Roszkowshi, W. H. Rooks II, A. J. Tomolonis and L. M. Miller, J. Pharmacol. Exp. Ther., 179, 114 (1971), both of which are hereby incorporated by reference.
In general, polythiophene derivatives of this invention have shown significant anti-edema activity.

With `CC(=O)OCc1ccc(-c2ccc(COC(C)=O)s2)s1`, the “Anti-edema effect, inhibition rate” value reads like this: (dosage 50 mg/kg) 17%; (dosage 100 mg/kg) 28%; (dosage 200 mg/kg) 28%.

Regarding `OCCC#Cc1ccc(-c2cccs2)s1`, the “Anti-edema effect, inhibition rate” value turned out to be 32% (dosage 50 mg/kg), 36% (dosage 100 mg/kg) and 38% (dosage 200 mg/kg).

With `OCc1ccc(-c2ccc(CO)s2)s1`, the “Anti-edema effect, inhibition rate” value (dosage 10 mg/kg) is recorded as 26%; the “Anti-edema effect, inhibition rate” value (dosage 50 mg/kg) is on record as 34%; the “Anti-edema effect, inhibition rate” value (dosage 100 mg/kg) came out at 37%; the “Anti-edema effect, inhibition rate” value (dosage 200 mg/kg) amounted to 41%.
